Patent US10577365B2, “Derivatives of quinoline as inhibitors of DYRK1A and/or DYRK1B kinases” (Felicitex Therapeutics, Inc., priority 2016, dated 2020)
Structures can show the parent of a compound that is named as a salt. Where two headings read alike, the source gives them in different places.

Assays:
DYRK1B = target: T1, DYRK1B (Homo sapiens, UniProt Q9Y463); test: DYRK1B in vitro kinase assay (ADP-Glo); assay type: biochemical
T1 construct: purchased Carna Bioscence (Carna Biosciences) 04-131
Procedure: The compounds of the present invention were tested for their inhibitory activity against DYRK1A and DYRK1B kinases once or several times. When tested more than once, the data are reported herein as average value, wherein the average value, also referred to as the mean value, represents the sum of obtained values divided by the number of times tested. DYRK-inhibitory activity of the compounds of the present invention was tested using the ADP-Glo™ assay as described in the following paragraphs. The procedure for determining the IC50 values with the ADP-Glo™ assay in in vitro kinase assays consists of two parts: […] Kinase reaction performed under optimized conditions; 2. Detection of ADP as a product of the reaction using ADP-Glo™ system (Promega). The tested compounds indicated in Table 5 below were dissolved in DMSO, then transferred to the V-bottom PP plate to perform nine serial dilutions (in order to obtain dose-response curves) in 25% DMSO, as indicated in Table 5 below. The optimized conditions for performing DYRK1B in vitro kinase assay were as follows: [table] For compound testing, the following protocol was used: two mixes were prepared on ice, Mix 1 containing substrate, ATP and reaction buffer and Mix 2 containing reaction buffer and the kinase. 15 μL per well of Mix 1 was transferred to wells of a 96-well plate. […] Total reaction volume was 30 μL per well. The experiment was performed in duplicate for each data point being examined. Dose response curve for the positive control was carried out on each assay plate by adding the reference inhibitory compound staurosporine. For each test, three controls were also included: (i) 30 μL of the reaction mixture containing: reaction buffer, ATP, kinase, DMSO without substrate (quasi-positive control); (ii) 30 μL of the reaction mixture containing reaction buffer, substrate, ATP, DMSO without kinase (background control); (iii) 30 μL of the reaction mixture containing reaction buffer, substrate, kinase, ATP, DMSO (vehicle control). Final concentration of DMSO in the reaction was 2%. To detect the ADP amount produced during the kinase reaction, the commercially available kit ADP-Glo™ Kinase Assay (Promega, cat. No # V9103) was used. The protocol used for the detection was based on the Technical Bulletin of the ADP-Glo™ Kinase Assay (Promega) and was adapted to 96-well plate containing 30 μL reaction mixture as explained below. 30 μL of ADP-Glo™ Reagent was added to each well of a 96 well plate containing 30 μL of reaction mixture to terminate the kinase reaction and deplete the remaining ATP. The plate was incubated for 60 minutes on a shaker at rt. 60 μL of Kinase Detection Solution was then added to each well of 96-well plate containing 60 μL of the solution to convert ADP to ATP and to allow the newly synthesized ATP to be measured using a luciferase/luciferin reaction (ratio of kinase reaction volume to ADP Glo™ Reagent volume to Kinase Detection Solution volume was maintained at 1:1:2). The plate was incubated for 40 minutes on a shaker at rt, protected from light. Luminescence was measured in the plate reader, wherein the luminescent signal is proportional to the ADP concentration produced and thus correlates with kinase activity. After data normalization to controls (complete reaction mix and no-substrate control) and transforming X values (test compound concentrations) using: X=log(X), IC50 values were determined, using the GraphPad Prism 6.0 [log(agonist) vs. normalized response—Variable slope].

DYRK1A = target: T2, DYRK1A (Homo sapiens, UniProt Q13627); test: DYRK1A in vitro kinase assay (ADP-Glo); assay type: biochemical; settings: ATP 70 μM (Km), substrate 3 μM, enzyme 2 nM or 0.7 nM, 30 min, rt
T2 construct: purchased Carna Bioscence (Carna Biosciences) 04-130
Procedure: The compounds of the present invention were tested for their inhibitory activity against DYRK1A and DYRK1B kinases once or several times. When tested more than once, the data are reported herein as average value, wherein the average value, also referred to as the mean value, represents the sum of obtained values divided by the number of times tested.
DYRK-inhibitory activity of the compounds of the present invention was tested using the ADP-Glo™ assay as described in the following paragraphs. The procedure for determining the IC50 values with the ADP-Glo™ assay in in vitro kinase assays consists of two parts:
1. Kinase reaction performed under optimized conditions;
2. Detection of ADP as a product of the reaction using ADP-Glo™ system (Promega).
The tested compounds indicated in Table 5 below were dissolved in DMSO, then transferred to the V-bottom PP plate to perform nine serial dilutions (in order to obtain dose-response curves) in 25% DMSO, as indicated in Table 5 below.
The optimized conditions for performing DYRK1A in vitro kinase assay were as follows:
For compound testing, the following protocol was used: two mixes were prepared on ice, Mix 1 containing substrate, ATP and reaction buffer and Mix 2 containing reaction buffer and the kinase. 15 μL per well of Mix 1 was transferred to wells of a 96-well plate. Next, 2.5 μL of the pre-diluted compound to be tested was added to Mix 1, followed by the addition of 12.5 μL of Mix 2. Total reaction volume was 30 μL per well. The experiment was performed in duplicate for each data point being examined. Dose response curve for the positive control was carried out on each assay plate by adding the reference inhibitory compound staurosporine. For each test, three controls were also included: (i) 30 μL of the reaction mixture containing: reaction buffer, ATP, kinase, DMSO without substrate (quasi-positive control); (ii) 30 μL of the reaction mixture containing reaction buffer, substrate, ATP, DMSO without kinase (background control); (iii) 30 μL of the reaction mixture containing reaction buffer, substrate, kinase, ATP, DMSO (vehicle control). Final concentration of DMSO in the reaction was 2%. To detect the ADP amount produced during the kinase reaction, the commercially available kit ADP-Glo™ Kinase Assay (Promega, cat. No # V9103) was used. The protocol used for the detection was based on the Technical Bulletin of the ADP-Glo™ Kinase Assay (Promega) and was adapted to 96-well plate containing 30 μL reaction mixture as explained below.
30 μL of ADP-Glo™ Reagent was added to each well of a 96 well plate containing 30 μL of reaction mixture to terminate the kinase reaction and deplete the remaining ATP. The plate was incubated for 60 minutes on a shaker at rt. 60 μL of Kinase Detection Solution was then added to each well of 96-well plate containing 60 μL of the solution to convert ADP to ATP and to allow the newly synthesized ATP to be measured using a luciferase/luciferin reaction (ratio of kinase reaction volume to ADP Glo™ Reagent volume to Kinase Detection Solution volume was maintained at 1:1:2). The plate was incubated for 40 minutes on a shaker at rt, protected from light. Luminescence was measured in the plate reader, wherein the luminescent signal is proportional to the ADP concentration produced and thus correlates with kinase activity.
After data normalization to controls (complete reaction mix and no-substrate control) and transforming X values (test compound concentrations) using: X=log(X), IC50 values were determined, using the GraphPad Prism 6.0 [log(agonist) vs. normalized response—Variable slope].

[1] = ADP-Glo assay, ATP 15 μM (Km), substrate 7 μM, enzyme 1 nM or 0.3 nM, 1 h, rt, read-out: DYRK1B IC50

T1 sequence (Q9Y463 whole entry): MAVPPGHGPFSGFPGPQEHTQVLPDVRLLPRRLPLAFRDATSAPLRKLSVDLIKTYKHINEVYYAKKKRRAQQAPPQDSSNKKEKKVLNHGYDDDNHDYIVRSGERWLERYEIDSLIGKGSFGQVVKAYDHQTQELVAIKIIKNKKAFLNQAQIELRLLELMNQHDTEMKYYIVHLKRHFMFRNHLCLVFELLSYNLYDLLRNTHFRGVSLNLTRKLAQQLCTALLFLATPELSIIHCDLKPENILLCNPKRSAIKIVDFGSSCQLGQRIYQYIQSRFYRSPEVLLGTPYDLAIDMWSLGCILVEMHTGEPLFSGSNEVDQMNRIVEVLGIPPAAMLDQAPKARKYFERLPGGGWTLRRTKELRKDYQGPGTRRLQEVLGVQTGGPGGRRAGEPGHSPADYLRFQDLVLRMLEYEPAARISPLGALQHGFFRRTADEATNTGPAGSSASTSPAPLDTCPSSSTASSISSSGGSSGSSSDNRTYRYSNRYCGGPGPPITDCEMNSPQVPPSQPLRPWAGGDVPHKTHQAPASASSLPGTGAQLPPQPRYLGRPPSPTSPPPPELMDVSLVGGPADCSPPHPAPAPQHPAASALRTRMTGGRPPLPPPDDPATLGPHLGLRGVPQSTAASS

Compound | IC50 (DYRK1B; [1]) [nM] | IC50 (DYRK1A) [nM] | IC50 (DYRK1B) [nM]
Cc1cc(-c2c[nH]c3ncccc23)cc2c(-c3cccnc3)ccnc12 [Example 18, 8-Methyl-4-(pyridin-3-yl)-6-{1H-pyrrolo[2,3-b]pyridin-3-yl}quinoline] | 10 to 100 |  | 
CNC(=O)c1cnc2[nH]cc(-c3cc(F)c4nccc(N5CCC[C@H](N)C5)c4c3)c2c1 [Example 43, 3-{4-[(3S)-3-Aminopiperidin-1-yl]-8-fluoroquinolin-6-yl}-N-methyl-1H-pyrrolo[2,3-b]pyridine-5-carboxamide hydrochloride] | < 10 | < 10 | 
N[C@H]1CCN(c2ccnc3ccc(-c4c[nH]c5ncccc45)cc23)C1 [Example 5, (3S)-1-(6-{1H-Pyrrolo[2,3-b]pyridin-3-yl}quinolin-4-yl)pyrrolidin-3-amine] |  | < 10 | 
FC(F)(F)Oc1cc(-c2c[nH]c3ncccc23)cc2cccnc12 [Example 14, 6-{1H-Pyrrolo[2,3-b]pyridin-3-yl}-8-(trifluoromethoxy)quinoline] | 10 to 100 | > 100 | 
c1cnc2[nH]cc(-c3ccc4ncc(NCc5ccoc5)cc4c3)c2c1 [Example 16, N-(Furan-3-ylmethyl)-6-{1H-pyrrolo[2,3-b]pyridin-3-yl}quinolin-3-amine] | < 10 | < 10 | 
O=C(NCc1ccccc1)c1cnc2[nH]cc(-c3cc(F)c4ncccc4c3)c2c1 [Example 31, N-Benzyl-3-(8-fluoroquinolin-6-yl)-1H-pyrrolo[2,3-b]pyridine-5-carboxamide] | < 10 | < 10 | 
Cc1cc(-c2c[nH]c3ncccc23)cc2cccnc12 [Example 12, 8-Methyl-6-{1H-pyrrolo[2,3-b]pyridin-3-yl}quinoline hydrochloride] |  |  | 10 to 100
CNC(=O)c1cnc2[nH]cc(-c3cc(OC)c4ncccc4c3)c2c1 [Example 29, 3-(8-Methoxyquinolin-6-yl)-N-methyl-1H-pyrrolo[2,3-b]pyridine-5-carboxamide] | 10 to 100 |  | 
CNC(=O)c1cnc2[nH]cc(-c3ccc4ncc(NC(C)=O)c(N5CCOCC5)c4c3)c2c1 [Example 57, 3-[3-Acetamido-4-(morpholin-4-yl)quinolin-6-yl]-N-methyl-1H-pyrrolo[2,3-b]pyridine-5-carboxamide] | < 10 | < 10 | 
N[C@H]1CC[C@H](Nc2c(NCC3CCOCC3)cnc3ccc(-c4c[nH]c5ncc(C(=O)NCc6cccnc6)cc45)cc23)CC1 [Example 60, 3-{4-[(4-Aminocyclohexyl)amino]-3-[(oxan-4-ylmethyl)amino]quinolin-6-yl}-N-(pyridin-3-ylmethyl)-1H-pyrrolo[2,3-b]pyridine-5-carboxamide hydrochloride] | < 10 | 10 to 100 | 
NC(=O)c1cnc2[nH]cc(-c3cc(F)c4ncccc4c3)c2c1 [Example 33, 3-(8-Fluoroquinolin-6-yl)-1H-pyrrolo[2,3-b]pyridine-5-carboxamide] | < 10 | < 10 | 
CN1CCC(N(C)c2c([N+](=O)[O-])cnc3ccc(-c4c[nH]c5ncccc45)cc23)CC1 [Example 65, N-Methyl-N-(1-methylpiperidin-4-yl)-3-nitro-6-{1H-pyrrolo[2,3-b]pyridin-3-yl}quinolin-4-amine] | 10 to 100 | 10 to 100 | 
c1ccc(-c2ccnc3ccc(-c4c[nH]c5ncccc45)cc23)cc1 [Example 8, 4-Phenyl-6-{1H-pyrrolo[2,3-b]pyridin-3-yl}quinoline] | < 10 | < 10 | 
N[C@H]1CCCN(c2ccnc3ccc(-c4c[nH]c5ncccc45)cc23)C1 [Example 3, (3S)-1-(6-{1H-Pyrrolo[2,3-b]pyridin-3-yl}quinolin-4-yl)piperidin-3-amine] | < 10 | < 10 | 
O=C(NCc1ccccc1)c1cnc2[nH]cc(-c3cc(F)c4nccc(-c5cccnc5)c4c3)c2c1 [Example 36, N-Benzyl-3-[8-fluoro-4-(pyridin-3-yl)quinolin-6-yl]-1H-pyrrolo[2,3-b]pyridine-5-carboxamide] | < 10 | 10 to 100 | 
Clc1ccnc2ccc(-c3c[nH]c4ncccc34)cc12 [Example 1, 4-Chloro-6-{1H-pyrrolo[2,3-b]pyridin-3-yl}quinoline] |  | 10 to 100 | 
COc1cc(-c2c[nH]c3ncccc23)cc2cccnc12 [Example 15, 8-Methoxy-6-{1H-pyrrolo[2,3-b]pyridin-3-yl}quinoline] | 10 to 100 |  | 
CNC(=O)c1cnc2[nH]cc(-c3cc(C)c4nccc(-c5cccnc5)c4c3)c2c1 [Example 42, N-Methyl-3-[8-methyl-4-(pyridin-3-yl)quinolin-6-yl]-1H-pyrrolo[2,3-b]pyridine-5-carboxamide] | 10 to 100 |  | 
CN1CCC(Nc2c(C#N)cnc3ccc(-c4c[nH]c5ncccc45)cc23)CC1 [Example 64, 4-[(1-Methylpiperidin-4-yl)amino]-6-{1H-pyrrolo[2,3-b]pyridin-3-yl}quinoline-3-carbonitrile] | 10 to 100 |  | 
N[C@H]1CC[C@H](Nc2ccnc3ccc(-c4c[nH]c5ncccc45)cc23)CC1 [Example 4, trans-1-N-(6-{1H-Pyrrolo[2,3-b]pyridin-3-yl}quinolin-4-yl)cyclohexane-1,4-diamine] |  | > 100 | 
CN1CCC(Nc2ccnc3ccc(-c4c[nH]c5ncccc45)cc23)CC1 [Example 10, N-(1-Methylpiperidin-4-yl)-6-{1H-pyrrolo[2,3-b]pyridin-3-yl}quinolin-4-amine] | 10 to 100 |  | 
